Data as given in ChEMBL document CHEMBL1201862, “PubChem BioAssay data set” (2004).
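A five-concentration, 48-hour dose response in 96-well plates underlies each endpoint, interpolated linearly between surrounding concentrations. Here, GI50 denotes the concentration required for 50% inhibition of growth.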 Activity calls are given as the source filed them. No stated cut-off is given here; in the data, active = GI50 up to about 1.1 µM and inactive = higher.

Columns and labels:
Assay in all cases: DTP human tumour cell line panel, 48 h
[1] = system: A549
[2] = system: CCRF-CEM
[3] = system: EKVX
[4] = system: HCC 2998
[5] = system: HCT-116
[6] = system: HOP-62
[7] = system: HOP-92
[8] = system: HT-29
[9] = system: KM12
[10] = system: MDA-MB-435
[11] = system: NCI-H226
[12] = system: NCI-H460
[13] = system: OVCAR-3
[14] = system: OVCAR-8
[15] = system: RPMI-8226
[16] = system: SK-MEL-28
[17] = system: SK-MEL-2
[18] = system: SNB-19
[19] = system: T47D

Compound	GI50 [1]	GI50 [2]	GI50 [3]	GI50 [4]	GI50 [5]	GI50 [6]	GI50 [7]	GI50 [8]	GI50 [9]	GI50 [10]	GI50 [11]	GI50 [12]	GI50 [13]	GI50 [14]	GI50 [15]	GI50 [16]	GI50 [17]	GI50 [18]	GI50 [19]
CC(C)=CCN1c2ccccc2[C@@]2(CC=C(C)C)CCN(C)[C@@H]12 [(+)-DEBROMOFLUSTRAMINE B]	36.1 µM (inactive)	34.2 µM (inactive)	21.2 µM (inactive)	13.7 µM (inactive)	23.6 µM (inactive)	19.2 µM (inactive)	32.7 µM (inactive)	19.5 µM (inactive)	24.5 µM (inactive)	21.1 µM (inactive)	44.2 µM (inactive)	14.8 µM (inactive)	18.1 µM (inactive)	28.2 µM (inactive)	21.6 µM (inactive)	35.5 µM (inactive)	14 µM (inactive)	22.3 µM (inactive)	20.7 µM (inactive)
Clc1ccc(NCc2nnc(COc3ccc(OCc4nnc(CNc5ccc(Cl)cc5)o4)c(Cl)c3)o2)cc1	49 µM (inactive)	11.2 µM (inactive)	22.8 µM (inactive)	> 100 µM (inactive)	> 100 µM (inactive)	> 100 µM (inactive)	13.3 µM (inactive)	27.2 µM (inactive)	26.9 µM (inactive)	18.5 µM (inactive)	23.3 µM (inactive)	42.6 µM (inactive)	29.7 µM (inactive)	62.7 µM (inactive)	9.51 µM (inactive)	75.3 µM (inactive)	14 µM (inactive)	> 100 µM (inactive)	> 100 µM (inactive)
CC/C(Cl)=N\OC(=O)Nc1ccccc1OC(F)(F)F	22.6 µM (inactive)	1.75 µM (inactive)	7 µM (inactive)	18.6 µM (inactive)	7.08 µM (inactive)	19 µM (inactive)	2.39 µM (inactive)	21.3 µM (inactive)	20.6 µM (inactive)	19.4 µM (inactive)	19.1 µM (inactive)	20.7 µM (inactive)	8.22 µM (inactive)	17.7 µM (inactive)	1.73 µM (inactive)	20.1 µM (inactive)	17.7 µM (inactive)	22.5 µM (inactive)	4.32 µM (inactive)
CSCSSC	> 100 µM (inactive)	40.6 µM (inactive)	> 100 µM (inactive)	> 100 µM (inactive)	> 100 µM (inactive)	> 100 µM (inactive)	> 75.5 µM (inactive)	> 100 µM (inactive)	> 57.3 µM (inactive)	> 78 µM (inactive)	> 100 µM (inactive)	> 100 µM (inactive)	> 100 µM (inactive)	> 100 µM (inactive)	56.5 µM (inactive)	> 57.3 µM (inactive)	> 35.5 µM (inactive)	> 100 µM (inactive)	> 100 µM (inactive)
CCCCCCCCCCC(C(=O)O)C1(C(=O)O)CCC(=O)O1 (stereo not given)	> 100 µM (inactive)	> 100 µM (inactive)	> 100 µM (inactive)	> 100 µM (inactive)	> 100 µM (inactive)	> 100 µM (inactive)	> 100 µM (inactive)	> 100 µM (inactive)	> 100 µM (inactive)	> 100 µM (inactive)	> 100 µM (inactive)	> 100 µM (inactive)	> 100 µM (inactive)	> 100 µM (inactive)	> 100 µM (inactive)	> 100 µM (inactive)	> 100 µM (inactive)	> 100 µM (inactive)	> 100 µM (inactive)
CO/N=C1\CC(C)N2C(=O)C(C(C)C)NC(=O)C(NC(=O)c3c4nc5c(C(=O)NC6C(=O)NC(C(C)C)C(=O)N7C(C)CC(O)C7C(=O)N(C)CC(=O)N(C)C(C(C)C)C(=O)OC6C)ccc(C)c5oc-4c(C)c(=O)c3N)C(CO)OC(=O)C(C)N(C)C(=O)CN(C)C(=O)C12 (stereo not given)	0.815 µM (active)	0.0703 µM (active)	4 µM (inactive)	0.869 µM (active)	0.321 µM (active)	1.57 µM (inactive)	0.753 µM (active)	0.526 µM (active)	0.877 µM (active)	0.824 µM (active)	1.05 µM (active)	0.098 µM (active)	1.42 µM (inactive)	0.617 µM (active)	0.0984 µM (active)	0.791 µM (active)	0.308 µM (active)	0.684 µM (active)	0.574 µM (active)
CN1CCC(n2[nH]c(-c3ccccc3)c(Cc3ccccc3)c2=O)CC1 [BENZPIPERYLON]	> 100 µM (inactive)	37.9 µM (inactive)	> 100 µM (inactive)	> 100 µM (inactive)	75.9 µM (inactive)	> 100 µM (inactive)	> 100 µM (inactive)	87.9 µM (inactive)	> 100 µM (inactive)	> 100 µM (inactive)	> 100 µM (inactive)	49.5 µM (inactive)	> 100 µM (inactive)	> 100 µM (inactive)	46.8 µM (inactive)	> 100 µM (inactive)	> 100 µM (inactive)	> 100 µM (inactive)	> 100 µM (inactive)
NCCN(CCN)/[N+]([O-])=N/O	> 100 µM (inactive)	43.6 µM (inactive)	> 100 µM (inactive)	> 100 µM (inactive)	> 100 µM (inactive)	> 100 µM (inactive)	> 100 µM (inactive)	> 100 µM (inactive)	> 100 µM (inactive)	> 100 µM (inactive)	> 100 µM (inactive)	69.3 µM (inactive)	> 100 µM (inactive)	> 100 µM (inactive)	> 100 µM (inactive)	> 100 µM (inactive)	> 100 µM (inactive)	> 100 µM (inactive)	> 100 µM (inactive)
CCCCCCCCCCCCCC[S+](C)C	1.68 µM (inactive)	1.23 µM (inactive)	3.01 µM (inactive)	1.66 µM (inactive)	2.51 µM (inactive)	1.67 µM (inactive)	1.18 µM (inactive)	1.56 µM (inactive)	1.57 µM (inactive)	1.91 µM (inactive)	1.99 µM (inactive)	2.11 µM (inactive)	1.48 µM (inactive)	1.77 µM (inactive)	0.601 µM (active)	2.58 µM (inactive)	2.02 µM (inactive)	1.4 µM (inactive)	2.1 µM (inactive)
CCN1CCC(O)(/C=C/c2ccc(Cl)c(Cl)c2)C(C(=O)/C=C/c2ccc(Cl)c(Cl)c2)C1 (stereo not given)	0.673 µM (active)	0.306 µM (active)	0.731 µM (active)	1.71 µM (inactive)	0.514 µM (active)	0.951 µM (active)	0.621 µM (active)	0.689 µM (active)	0.713 µM (active)	0.877 µM (active)	1.84 µM (inactive)	0.76 µM (active)	0.764 µM (active)	0.745 µM (active)	0.136 µM (active)	0.881 µM (active)	1.04 µM (active)	1.89 µM (inactive)	0.966 µM (active)
